Legend:
SK-Mel-19 = assay: Suppression of proliferation / senescence induction in melanoma line; assay type: cell-based; conditions: Homo sapiens, SK-MEL19
Text: (§1) 260 analogs of N77A7 were selected from several commercially available libraries of small molecules based on the structural similarities with N77A7. The compounds were screened for the ability to permanently suppress proliferation and induce senescence in cells from melanoma lines SK-Mel-19 and SK-Mel-103. Based on the above-described screening procedure, seven small molecules were identified as having IC50 values lower than that of N77A7.

SK-Mel-103 = assay: as above; assay type: cell-based; conditions: Homo sapiens
Text: as §1

HO-null cells = assay: Secondary filter for Myc specificity: cell growth inhibition, methylene blue staining; assay type: cell-based; conditions: Rattus norvegicus, 72 h, read-out: ID50 HO-null
Description: (§2) FIG. 4 illustrates the myc specificity of tested compounds. Rat1a cells expressing c-myc, L-myc or N-myc or lacking any Myc (null) were treated for 72 h with a range of hit compound concentrations. The cells were then fixed and stained with methylene blue and the percentage of cells in the presence of compound compared to DMSO only control was calculated.
(§3) Validated hits were divided into classes when two or more compounds shared significant structural similarity. The ID50 for N-myc transactivation (the inhibitory dose resulting in 50% decrease in luciferase activity) for each hit was calculated from the dose-response N-myc responsive reporter assay. Compounds within each class were ranked by their ID50 for N-myc transactivation and the best compounds within each class were chosen for further studies. In addition, the best of the structurally unique compounds were also analyzed. A total of 46 hits were passed through a secondary filter designed to determine the specificity of the hits for Myc proteins. For this filter, we used a panel of cell lines derived from Rat1a cells (kindly provided by Michael Cole, Dartmouth University): HO-null-c-Myc deficient cells due to homologous recombination that express neither N-myc nor L-myc HO-c-Myc, HO-L-myc and HO-N-myc derived by retroviral transduction of the corresponding Myc genes into HO-null cells. Since each cell line expresses only a single Myc or no Myc family members, we could identify compounds that act through Myc family members as well as which Myc family members. […] The 18 Myc-specific compounds identified during the screening and filtering process are presented in Table 1 and represent distinct classes of molecules, including pyrazoles (e.g., N147A7, N47E10, N147G5), tetrazoles (e.g., N77A7) and 3-bromophenol (e.g., N4G6).

HO15.19-Vector cells = assay: Cell cycle distribution by FACS; assay type: cell-based, rat; conditions: 3 μM
HO-c-Myc cells = assay: Secondary filter for Myc specificity: cell growth inhibition, methylene blue staining; assay type: cell-based, rat
Description: as §2, §3

HO-N-myc cells = assay: as above; assay type: cell-based, rat
Description: as §2, §3

[1] = tested on: C-MYC-activated global gene expression in SK-Mel-103 melanoma cells; assay: Global gene expression analysis, Affymetrix U133 Plus 2.0; assay type: cell-based, human; conditions: 4 μM, 48 hours
Description: FIG. 13 illustrates a comparison of changes in global gene expression caused by depletion of C-MYC via shRNA or by treatment with N77A7.
SK-Mel-103 melanoma cells were infected with control- or MYC shRNA-expressing lentiviruses or treated with DMSO or 4 μM of N77A7. In 48 hours after lentiviral infection or incubation with the chemicals, cells were collected, RNA was isolated and subjected to global expression analysis using Affymetrix GeneChip® Human Genome U133 Plus 2.0 Platform. A linear model specifically designed for microarray analysis was applied to the data. Differentially expressed probe sets were detected using a nested F-test approach. An adjusted p-value of 0.005 was used to assess significance, adjusting for multiple comparisons using false discovery rate. The obtained results are schematically represented in FIG. 13. It was determined that incubation with N77A7 negatively affected expression of 820 genes by ≧2 fold (591+229, FIG. 13). […] Therefore it is logical to expect that the number of genes whose expression is suppressed both by MYC-shRNA and N77A7 should be higher than the number of genes whose expression is induced by both treatments.

Solubility remark = assay type: physicochemical; conditions: prepared in methylcellulose
melanoma cells (Mel-9) = assay: Stable-isotope tracing, 13C labeling of central metabolites; assay type: cell-based; conditions: 13C-glucose, 24 h, compared to control
Description: Cells were grown in 6-well plates, and the medium was replaced for the final 24 h of culture with the MEM medium described previously (Scott et al., JBC 286, 42626-34, 2011), containing 50% ^13C-labeled [U-^13C6] glucose or 50% ^13C-labeled [U-^13C5] glutamine] […] Metabolites were extracted and GC-MS analysis and calculation of ^13C labeling were performed as described (Scott et al., 2011). Metabolites were quantified on the basis of fragment ion intensities and standard curves derived from mixtures of standards run concurrently with samples, using the program Metaquant (B. Bunk et al., Bioinformatics 22, 2962-2965, 2006). On the graphs, the 13C labeling percentage is shown as average of to separate experiments (with error bars). Samples from cells treated by antimycon (“N77”), anti-MYC shRNA (“Myc”), nonspecific shRNA (“NS”) and the control treated only by DMSO are shown bars with distinct patterns.

[2] = tested on: Myc+ fibroblasts (HO15.19 Myc-null cells with C-MYC re-expression); assay: Stable-isotope tracing, 13C labeling and uptake/secretion of metabolites; assay type: cell-based, rat; conditions: 13C-glucose, 24 hrs, Myc+ cells treated
Description: Experiments were perform and data were analyzed as described in FIG. 14. Cellular measurements are mean±SD of 3 samples.

[3] = tested on: SK-Mel-103 melanoma cells
Description: One week following inoculation, treatment with 50 mg/kg N77A7 or Captisol vehicle control commenced. Treatment occurred daily by ip administration. Tumors were measured biweekly. Tumor volume was calculated using the formula tumor volume=L×W^2/2, where W=shortest dimension.
Our Myc inhibitors were tested for their effect against a panel of tumor cell lines, including neuroblastoma and melanoma that represent cell lines with aberrant N-myc and c-Myc expression, respectively. This panel of cell lines included the human neuroblastoma lines BE(2)C, IMR32 and NBL-WN (N-myc amplified), NBL-S (N-myc overexpression), SH-SY5Y (significant N- and c-Myc expression) and SH-EP (low levels c-Myc only) as well as two melanoma cell lines (#3 and #10-c-Myc overexpression) and normal melanocytes).

CCN(CC)c1ccc(/C=N/NC(=O)Cn2nnc(-c3ccccc3)n2)c(O)c1 [Compound N77A7]
IC50 (SK-Mel-19): 3000 nM | IC50 (SK-Mel-103): 3000 nM | IC50 (HO-null cells): 3640 nM | HO15.19-Vector G2 (HO15.19-Vector cells; percent of cells in G2 phase): 23.88% | HO15.19-Vector S (HO15.19-Vector cells; percent of cells in S phase): 21.22% | Myc Index C (HO-c-Myc cells; ID50 in HO-null cells divided by ID50 in HO-c-myc cells): 0.8 | IC50 (HO-c-Myc cells; Rattus norvegicus, cell growth inhibition, 72 h, methylene blue, read-out: ID50 HO-c-myc): 4700 nM | Myc Index N (HO-N-myc cells; ID50 in HO-null cells divided by ID50 in HO—N-myc cells): 4.5 | IC50 (HO-N-myc cells; Rattus norvegicus, cell growth inhibition, 72 h, methylene blue, read-out: ID50 HO—N-myc): 770 nM | number of genes whose expression was negatively affected by ≧2 fold [1]: 820 genes | number of these genes also suppressed ≧2 fold by MYC shRNA [1]: 591 genes | share of genes induced ≧2 fold also upregulated ≧2 fold by MYC shRNA [1]: 47.1% | share of suppressed genes also suppressed ≧2 fold by MYC shRNA [1]: 72.1% | solubility (Solubility remark): poorly soluble | labeling via glucose of serine, glycine, pyruvate, lactate, TCA-cycle metabolites (melanoma cells (Mel-9)): lower | metabolic phenotype [2]: metabolic phenotype similar to Myc-null cells | observable toxicity ([3]; mouse, in vivo): absence of any observable toxicity | tumor growth ([3]; preliminary, ½ maximum tolerated dose, melanoma xenograft, FIG. 7): reduced tumor growth compared to the vehicle control

From US9387213B2, “Small molecules inhibiting oncoprotein Myc” (Health Research, Inc., priority 2012, dated 2016)
